In patent publication US20210207081A1, “MATURE AIRWAY ORGANOIDS, METHODS OF MAKING AND USES THEREOF” (priority 2018, published 2021):

Tested on: H7N9/Ah virus
Assay type: cell-based, Influenza A virus A/Anhui/1/2013(H7N9)

NCCc1ccc(S(=O)(=O)F)cc1 [AEBSF]
replication of H7N9/Ah virus: significantly restricted the active replication of H7N9/Ah virus
